Test results from patent publication US8501804B2, “Bicyclic compound” (Takeda Pharmaceutical Company Limited, priority 2008, dated 2013).

Experiments:
[1] = molecular target: T1, human ACC2 (Nd) (Homo sapiens, UniProt O00763); experiment: ACC2 inhibitory activity (malachite green); format: biochemical; details: test compound 10 μM; for inhibition at 10 µM: read-out: ACC2 10 μM inhibitory rate (%)
T1 construct: His6 (from vector pFAST-BacHTa); made in house; host or cells: SF-9 insect cells, recombinant baculovirus BAC-ACC2 (Nd)
Experimental: The ACC2 inhibitory action of the compound of the present invention was evaluated by the following method.
(1) Cloning of Human ACC2 Gene and Preparation of Recombinant Baculovirus
(§1) Human ACC2 gene was cloned by PCR using a human skeletal muscle cDNA library (Clontech) as a template and Primer 1 and Primer 2 shown below. Primer 1 and Primer 2 were prepared by adding SalI, XbaI restriction enzyme recognition sequences based on the information of the base sequence of human ACC2 gene (Genbank Accession U89344).
(§2) PCR was performed using Pyrobest DNA polymerase (TAKARA BIO INC.). The obtained PCR product was cloned to pT7 Blue vector (Novagen) and, after confirmation of the base sequence, digested with restriction enzymes SalI and XbaI. The obtained DNA fragment was inserted into pFAST-BacHTa (Invitrogen) digested with restriction enzymes SalI and XbaI to give expression plasmid ACC2/pFAST-BacHTa.
A plasmid for expression of ACC2 without a mitochondrial targeting sequence was prepared by PCR using the expression plasmid as a template, and Primer 3 (SalI restriction enzyme recognition sequence was added) and Primer 4 prepared by reference to the information of human ACC2 gene base sequence (Genbank Accession U89344).
as §2, with “Pyrobest-DNA” for “Pyrobest DNA”, “AflII.” for “XbaI.”, “ACC2/pFAST-BacHTa” for “pFAST-BacHTa (Invitrogen)”, “AflII” for “XbaI”, “ACC2mito7/pFAST-BacHTa.” for “ACC2/pFAST-BacHTa.”
Using the expression plasmid ACC2mito7/pFAST-BacHTa and BAC-TO-BAC Baculovirus Expression System (Invitrogen), virus stock BAC-ACC2 of recombinant Baculovirus (N terminal deleted (hereinafter Nd)) was prepared.
(2) Preparation of ACC2 (Nd) Protein
SF-9 cells (Invitrogen) were inoculated to a medium (2 L) for insect cells (Sf-900IISFM medium (Invitrogen) containing 10% fetal bovine serum (Trace), 50 mg/L Gentamicin (Invitrogen), 0.1% Pluronic F-68 (Invitrogen)) at 0.5×10^6 cells/mL, and cultured with shaking in Wave Bioreactor (Wave) at 27° C., 20 rpm, rocking angle 6°, oxygen concentration 30%.
On day 4 of the culture, 3 L of the medium for insect cells was added, the rocking angle was set to 8°, and the cells were cultured. On day 5 of the culture, 100 ml of recombinant Baculovirus BAC-ACC2 (Nd) was added, 5 L of the medium for insect cells was further added, the rocking angle was set to 11°, and the cells were cultured for 3 days. The culture medium was centrifuged at 1000×g for 10 min to give virus-infected cells. The cells were washed with phosphate buffered saline (Invitrogen) and centrifuged under the same conditions. The obtained cells were cryopreserved at −80° C.
The cryopreserved cells were thawed in ice and suspended in 900 ml of 25 mM HEPES buffer (pH 7.5) containing 10% Glycerol, 0.13 M NaCl, 1 mM EDTA, 25 mM Sodium β-Glycerophosphate and 1 mM Sodium Orthovanadate, and supplemented with Complete Protease Inhibitor (Nippon Boehringer Ingelheim Co., Ltd.). The obtained suspension was homogenized three times in a polytron homogenizer (Kinematica) at 20,000 rpm for 30 sec. The obtained cell disruption solution was clarified by centrifugation at 31000×g for 60 min, and filtered through a 0.45 μm filter. The filtrate was passed through a column packed with 60 mL of Ni-NTA Super Flow Gel (QUIAGEN) at a flow rate of about 5 mL/min. The column was washed with buffer A (50 mM HEPES (pH 7.5) containing 0.3 M NaCl), further washed with buffer A containing 20 mM Imidazole, and eluted with buffer A containing 100 mM Imidazole. The eluate was concentrated with Vivaspin 20 (Vivascience) with a molecular weight cut off of 30K. The obtained concentrate was dialyzed against 50 mM HEPES (pH 7.5) containing 10 mM MgCl2, 2 mM Dithiothreitol, 10 mM Tripotassium Citrate and 0.3 M NaCl. The inner dialysate was filtered through a 0.22 μm filter to give ACC2 (Nd). […]

[2] = molecular target: T2, human ACC1 (Homo sapiens, UniProt Q13085); experiment: ACC1 inhibitory activity (malachite green); format: biochemical; details: test compound 10 μM; for inhibition at 10 µM: read-out: ACC1 10 μM inhibitory rate (%)
T2 construct: His6 (from vector pFAST-BacHTc); made in house; host or cells: SF-9 insect cells, recombinant baculovirus BAC-ACC1
Experimental: The ACC1 inhibitory action of the compound of the present invention was evaluated by the following method.
(1) Cloning of Human ACC1 Gene and Preparation of Recombinant Baculovirus
as §1, with “ACC1” for “ACC2”, “liver” for “skeletal muscle”, “NotI” for “XbaI”, “U19822).” for “U89344).”
as §2, with “NotI.” for “XbaI.”, “pFAST-BacHTc” for “pFAST-BacHTa”, “NotI” for “XbaI”, “ACC1/pFAST-BacHTc.” for “ACC2/pFAST-BacHTa.”
Using the expression plasmid ACC1/pFAST-BacHTc and BAC-TO-BAC Baculovirus Expression System (Invitrogen), virus stock BAC-ACC1 of recombinant Baculovirus was prepared.
(2) Preparation of ACC1 Protein
SF-9 cells (Invitrogen) were inoculated to a medium (1 L) for insect cells (Sf-900IISFM medium (Invitrogen) containing 10% fetal bovine serum (Trace), 50 mg/L Gentamicin (Invitrogen), 0.1% Pluronic F-68 (Invitrogen)) at 1×10^6 cells/mL, and cultured with shaking in 2 L meyer at 27° C., 100 rpm.
After 24 hr of the culture, 10 mL of recombinant Baculovirus BAC-ACC1 was added, and the cells were cultured for 3 days. The culture medium was centrifuged at 1000×g for 5 min to give virus-infected cells. The cells were washed with phosphate buffered saline (Invitrogen) and centrifuged under the same conditions. The obtained cells were cryopreserved at −80° C.
The cryopreserved cells were thawed in ice and suspended in 100 mL of 25 mM HEPES buffer (pH 7.5) containing 10% Glycerol, 0.13 M NaCl, 1 mM EDTA, 25 mM Sodium […] and 1 mM Sodium Orthovanadate, and supplemented with Complete Protease Inhibitor (Nippon Boehringer Ingelheim Co., Ltd.). The obtained suspension was homogenized three times in a polytron homogenizer (Kinematica) at 20,000 rpm for 30 sec. The obtained cell disruption solution was clarified by centrifugation at 185700×g for 50 min, and filtered through a 0.45 μm filter. The filtrate was passed through a column packed with 12 ml of Ni-NTA Super Flow Gel (QUIAGEN) at a flow rate of about 5 mL/min. The column was washed with buffer A (50 mM HEPES (pH 7.5) containing 0.3 M NaCl), further washed with buffer A containing 20 mM Imidazole, and eluted with buffer A containing 100 mM Imidazole. The eluate was concentrated with Vivaspin 20 (Vivascience) with a molecular weight cut off of 30K. The obtained concentrate was dialyzed against Sephadex G-25 (Amersham Biosciences, 358 mL) equilibrated with 50 mM HEPES (pH 7.5) containing 10 mM MgCl2, 2 mM Dithiothreitol, 10 mM Tripotassium Citrate and 0.3 M NaCl. The inner dialysate was concentrated with Vivaspin 20 (Vivascience) with molecular weight cut off of 30K, and concentrate was filtered through a 0.22 μm filter to give ACC1. The obtained ACC1 was cryopreserved at −80° C.
(3) Measurement of ACC1 Inhibitory Activity
ACC1 (0.93 mg/ml) obtained in the above-mentioned (2) was diluted with an enzyme reaction buffer (50 mM HEPES (pH 7.5), 10 mM MgCl2, 10 mM Tripotassium Citrate, 2 mM Dithiothreitol, 0.75 mg/ml Fatty acid free BSA) to a concentration of 8 μg/ml, and the mixture was added to each well of a 384 well assay plate (Nunc 265196) by 10 μl. A test compound was dissolved in dimethyl sulfoxide (DMSO) and the mixture was diluted with an enzyme reaction buffer and the resulting solution (5 μl) was added to each well. The mixture was incubated at 30° C. for 60 min. Then, a substrate solution (50 mM KHCO3, 200 μM ATP, 200 μM Acetyl-CoA, 5 μl) was added to each well, and the mixture was reacted at 30° C. for 20 min (test compound addition group). […]

T1 sequence (O00763 117-2458 limits assumed): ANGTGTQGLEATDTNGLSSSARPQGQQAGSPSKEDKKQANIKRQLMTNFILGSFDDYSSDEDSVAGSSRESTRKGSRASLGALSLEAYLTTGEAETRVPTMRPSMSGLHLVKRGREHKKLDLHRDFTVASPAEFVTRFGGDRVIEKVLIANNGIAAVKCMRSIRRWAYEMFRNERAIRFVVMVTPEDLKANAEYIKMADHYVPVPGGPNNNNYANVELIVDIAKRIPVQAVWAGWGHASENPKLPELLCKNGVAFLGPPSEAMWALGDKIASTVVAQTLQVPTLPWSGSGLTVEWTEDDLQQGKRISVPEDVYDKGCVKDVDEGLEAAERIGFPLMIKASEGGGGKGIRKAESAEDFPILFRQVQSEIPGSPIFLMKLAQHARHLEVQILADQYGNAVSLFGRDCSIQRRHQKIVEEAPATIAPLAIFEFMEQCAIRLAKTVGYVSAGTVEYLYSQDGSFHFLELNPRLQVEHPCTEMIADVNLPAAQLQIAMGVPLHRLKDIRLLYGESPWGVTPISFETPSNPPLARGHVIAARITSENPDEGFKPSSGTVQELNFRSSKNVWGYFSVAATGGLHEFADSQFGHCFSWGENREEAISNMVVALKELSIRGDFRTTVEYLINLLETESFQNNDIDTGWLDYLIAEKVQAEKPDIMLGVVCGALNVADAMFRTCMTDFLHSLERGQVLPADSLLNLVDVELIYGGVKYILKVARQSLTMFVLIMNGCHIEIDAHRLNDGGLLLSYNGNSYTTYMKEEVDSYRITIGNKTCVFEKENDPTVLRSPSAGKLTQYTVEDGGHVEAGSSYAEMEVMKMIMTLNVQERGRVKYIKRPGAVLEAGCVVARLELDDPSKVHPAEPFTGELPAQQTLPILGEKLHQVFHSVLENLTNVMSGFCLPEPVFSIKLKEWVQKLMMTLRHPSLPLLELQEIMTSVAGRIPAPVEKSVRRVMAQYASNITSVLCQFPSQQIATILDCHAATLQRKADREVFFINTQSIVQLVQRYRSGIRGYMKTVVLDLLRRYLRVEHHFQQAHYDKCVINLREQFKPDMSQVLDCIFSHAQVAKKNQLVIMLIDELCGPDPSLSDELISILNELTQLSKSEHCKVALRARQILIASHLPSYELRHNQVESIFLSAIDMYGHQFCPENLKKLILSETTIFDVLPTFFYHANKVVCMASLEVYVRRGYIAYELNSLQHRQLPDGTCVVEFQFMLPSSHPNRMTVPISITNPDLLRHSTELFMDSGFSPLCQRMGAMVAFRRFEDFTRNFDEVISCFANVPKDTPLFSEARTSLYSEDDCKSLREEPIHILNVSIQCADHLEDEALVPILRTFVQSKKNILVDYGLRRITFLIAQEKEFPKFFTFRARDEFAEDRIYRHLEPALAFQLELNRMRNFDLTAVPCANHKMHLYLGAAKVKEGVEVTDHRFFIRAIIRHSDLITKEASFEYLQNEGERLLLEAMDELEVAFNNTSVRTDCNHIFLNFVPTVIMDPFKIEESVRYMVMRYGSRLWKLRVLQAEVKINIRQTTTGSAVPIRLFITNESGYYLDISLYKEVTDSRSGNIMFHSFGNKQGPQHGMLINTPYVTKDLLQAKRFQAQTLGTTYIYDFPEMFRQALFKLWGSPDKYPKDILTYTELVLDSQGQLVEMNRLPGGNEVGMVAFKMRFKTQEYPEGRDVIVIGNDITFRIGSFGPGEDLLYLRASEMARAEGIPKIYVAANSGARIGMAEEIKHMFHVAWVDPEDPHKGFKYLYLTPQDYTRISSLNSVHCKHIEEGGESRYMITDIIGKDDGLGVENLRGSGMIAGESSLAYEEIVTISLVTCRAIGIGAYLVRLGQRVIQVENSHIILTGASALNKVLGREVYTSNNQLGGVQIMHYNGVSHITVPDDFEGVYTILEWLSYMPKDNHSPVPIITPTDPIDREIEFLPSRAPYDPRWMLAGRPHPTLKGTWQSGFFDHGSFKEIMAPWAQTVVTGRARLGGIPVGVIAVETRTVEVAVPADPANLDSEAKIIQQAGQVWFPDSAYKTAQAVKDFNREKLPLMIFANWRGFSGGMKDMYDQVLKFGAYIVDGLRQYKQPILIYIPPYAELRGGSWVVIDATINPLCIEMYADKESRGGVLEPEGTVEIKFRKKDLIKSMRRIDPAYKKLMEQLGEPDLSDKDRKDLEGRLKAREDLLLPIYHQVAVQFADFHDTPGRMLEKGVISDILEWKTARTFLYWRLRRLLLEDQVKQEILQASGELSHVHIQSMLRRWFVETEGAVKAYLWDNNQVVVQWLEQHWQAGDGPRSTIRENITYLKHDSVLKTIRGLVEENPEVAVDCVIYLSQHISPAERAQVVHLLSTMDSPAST

`CC(=O)NC(C)c1cc2ccc(CCc3ccc(OC4CCCC4)cc3)cc2o1` (centres unmarked) [Example 170, N-[1-(6-{2-[4-(cyclopentyloxy)phenyl]ethyl}-1-benzofuran-2-yl)ethyl]acetamide] was tested, and the inhibition at 10 µM [1] was 84% and the inhibition at 10 µM [2] was 30%.

For `CC(=O)NC(C)c1cc2cc(OCc3ccc(OCC4CC4)cc3F)ccc2o1` (centres unmarked) [Example 116 (retention time longer), N-[1-(5-{[4-(cyclopropylmethoxy)-2-fluorobenzyl]oxy}-1-benzofuran-2-yl)ethyl]acetamide], the “ACC2 10 μM inhibitory rate (%)” value [1] was 63% and the “ACC1 10 μM inhibitory rate (%)” value [2] was 24%.

In the case of `CCOc1ccc(/C=C/c2ccc3cc(C(C)NC(C)=O)oc3c2)cc1` (centres unmarked) [Example 125, N-(1-{6-[(E)-2-(4-ethoxyphenyl)ethenyl]-1-benzofuran-2-yl}ethyl)acetamide], the inhibition at 10 µM [1] is reported as 83% and the inhibition at 10 µM [2] is reported as 33%.

In the case of `CC(=O)N[C@@H](C)[C@@H]1Cc2ccc(C#Cc3ccc(OCC4CC4)cc3)cc2O1.CC(=O)N[C@H](C)[C@H]1Cc2ccc(C#Cc3ccc(OCC4CC4)cc3)cc2O1` (mixture of isomers) [Example 129 (retention time longer), N-{(1R)-1-[(2R)-6-{[4-(cyclopropylmethoxy)phenyl]ethynyl}-2,3-dihydro-1-benzofuran-2-yl]ethyl}acetamide and N-{(1S)-1-[(2S)-6-{[4-(cyclopropylmethoxy)phenyl]ethynyl}-2,3-dihydro-1-benzofuran-2-yl]ethyl}acetamide], the “ACC2 10 μM inhibitory rate (%)” value [1] is reported as 86% and the “ACC1 10 μM inhibitory rate (%)” value [2] is reported as 51%.

`CCCOc1ccc(CCc2ccc3cc(C(C)NC(C)=O)oc3c2)cc1` (centres unmarked) [Example 32, N-(1-{6-[2-(4-propoxyphenyl)ethyl]-1-benzofuran-2-yl}ethyl)acetamide] gave an inhibition at 10 µM [1] of 84% and an inhibition at 10 µM [2] of 36%.

`CC(=O)NC(C)c1cc2ccc(CCc3ccc(OCC4CC4)cc3)cc2o1` (centres unmarked) [Example 150, N-[1-(6-{2-[4-(cyclopropylmethoxy)phenyl]ethyl}-1-benzofuran-2-yl)ethyl]acetamide] gave an inhibition at 10 µM [1] of 81% and an inhibition at 10 µM [2] of 27%.

`CC(=O)NC(C)c1cc2cc(OCc3ccc(OCC4CC4)cc3Cl)ccc2o1` (centres unmarked) [Example 134 (retention time longer), N-[1-(5-{[2-chloro-4-(cyclopropylmethoxy)benzyl]oxy}-1-benzofuran-2-yl)ethyl]acetamide] was tested, and the inhibition at 10 µM [1] was 55% and the inhibition at 10 µM [2] was 33%.

Work on `CC(=O)NC(C)c1cc2cc(OCc3ccc(OCC4CC4)cc3)ccc2o1` (centres unmarked) [Example 132 (retention time longer), N-[1-(5-{[4-(cyclopropylmethoxy)benzyl]oxy}-1-benzofuran-2-yl)ethyl]acetamide] yielded an inhibition at 10 µM [1] of 91% and an inhibition at 10 µM [2] of 46%.

In the case of `CC(=O)NC(C)c1cc2ccc(CCc3ccc4c(c3)C(C)(C)CO4)cc2o1` (centres unmarked) [Example 152, N-(1-{6-[2-(3,3-dimethyl-2,3-dihydro-1-benzofuran-5-yl)ethyl]-1-benzofuran-2-yl}ethyl)acetamide], the inhibition at 10 µM [1] is reported as 78% and the inhibition at 10 µM [2] is reported as 39%.

In the case of `CC(=O)NC(C)C1Cc2cc(OCc3ccc(OCC4CC4)cc3F)ccc2O1` (centres unmarked) [Example 141 (retention time shorter), N-[1-(5-{[4-(cyclopropylmethoxy)-2-fluorobenzyl]oxy}-2,3-dihydro-1-benzofuran-2-yl)ethyl]acetamide], the “ACC2 10 μM inhibitory rate (%)” value [1] is reported as 95% and the “ACC1 10 μM inhibitory rate (%)” value [2] is reported as 41%.

`CCCCOc1ccc(CCc2ccc3cc(C(C)NC(C)=O)oc3c2)cc1` (centres unmarked) [Example 189 (retention time shorter)] was tested, and the “ACC2 10 μM inhibitory rate (%)” value [1] was 77% and the “ACC1 10 μM inhibitory rate (%)” value [2] was 37%.

`CCOc1ccc(CCc2ccc3cc(C(C)NC(C)=O)oc3n2)cc1` (centres unmarked) [Example 123, N-(1-{6-[2-(4-ethoxyphenyl)ethyl]furo[2,3-b]pyridin-2-yl}ethyl)acetamide] gave an inhibition at 10 µM [1] of 78% and an inhibition at 10 µM [2] of 8%.

`CCOc1ccc(COc2ccc3cc(C(C)NC(C)=O)sc3c2)cc1` (centres unmarked) [Example 19, N-(1-{6-[(4-ethoxybenzyl)oxy]-1-benzothiophen-2-yl}ethyl)acetamide] showed an inhibition at 10 µM [1] of 78% and an inhibition at 10 µM [2] of 24%.
